Test results: patent US20130131321A1, “LIGANDS FOR ANTIBODY AND Fc-FUSION PROTEIN PURIFICATION BY AFFINITY CHROMATOGRAPHY” (GRAFFINITY PHARMACEUTICALS GMBH, priority 2010, published 2013)
Where two headings read alike, the source gives them in different places.

How the values were obtained:
Bevacizumab [1] = target: T1, Bevacizumab (Homo sapiens, UniProt P01857); test: Microtiter plate chromatography of resins, Bevacizumab whole IgG (bound, yield, selectivity); assay type: binding, humanized
T1 construct: fused on or other part: humanised anti-VEGF-A VH domain N-terminal of the gamma-1 constant region (engineered, no UniProt entry)
Description: (§1) Resins were assessed in packed mode by microtiter plate chromatography. For each column, approximately 30 μl of resin were transferred to a 384-well filter plate and sealed with appropriate top frits.
(§2) Columns were equilibrated with 6.7 column volumes (cv) of phosphate buffered saline (0.15 M NaCl, 20 mM sodium phosphate, pH 7.3; PBS) prior to injection. Either 3.3 cv of whole IgGs dissolved at 0.75 mg ml^−1, Fab or Fc fragments dissolved at 0.25 mg ml^−1 (all three in PBS) or host cell proteins (HCP) were injected onto columns. Antibody fragments of Bevacizumab (Fab and Fc) were prepared by cleavage of whole IgG with papain protease (3) according to the protocol of the manufacturer. […] Volumes transferred were spun through columns at 50 g for 1-2 min. During injection of samples, acceleration was reduced to 10 g and centrifugation time increased to 5-10 min. Effluent fractions were collected in 384-well plates and concentrations of protein analyzed by Bradford assay. Protein masses mi, mft and me (see below) were calculated as the product of fraction volume and measured protein concentration.
(§3) The fraction of ‘bound’ protein was calculated as the difference between the total mass of protein injected mi and the mass of protein detected in the flowthrough mft, divided by the total mass of protein injected.
(§4) The ‘yield’ of protein was calculated as the mass of protein eluted me, divided by the mass of protein injected mi.
(§5) The ‘selectivity’ of resins was calculated as the fraction of bound antibody BAb, divided by the fraction of bound host cell proteins BHCP.
(§6) the fraction of ‘bound’ protein and the ‘yield’ of protein were calculated for each resin based on data for whole IgG-antibodies. In the case of Bevacizumab fragments and host cell proteins, only the fraction of ‘bound’ protein is given. Selectivity of resins was calculated from data for Bevacizumab Whole IgG and host cell proteins. Due to limited experimental precision, selectivity was truncated beyond values of 10.

Bevacizumab [2] = test: as above; assay type: binding, humanized
Description: as §1, §2, §3, §4, §5, §6

Tocilizumab = test: Microtiter plate chromatography of resins, Tocilizumab (bound, yield); assay type: binding, humanized
Description: as §1, §2, §3, §4, §6

Palivizumab = test: Microtiter plate chromatography of resins, Palivizumab (bound, yield); assay type: binding, humanized
Description: as §1, §2, §3, §4, §6

[3] = tested on: human poly-IgG (h-poly-IgG); test: Microtiter plate chromatography of resins, human poly-IgG (bound, yield); assay type: binding
Description: as §1, §2, §3, §4, §6

host cell proteins (HCP) = test: Microtiter plate chromatography of resins, host cell proteins (bound); assay type: binding, CHO
Description: Flowthrough from protein A chromatography (referred to as host cell proteins) was derived from the supernatant of antibody-producing CHO cell culture in serum-free medium.
as §1, §2, §3, §6

[4] = fraction of injected whole IgG bound to resin
[5] = mass eluted / mass injected, whole IgG
[6] = fraction of injected protein bound to resin
[7] = fraction of injected host cell proteins bound to resin
[8] = fraction of whole IgG Bevacizumab bound to resin
[9] = mass of whole IgG Bevacizumab eluted / mass injected

Structure (SMILES) | Bevacizumab IgG Bound (%) (Bevacizumab [1]; [4]) | Bevacizumab IgG Yield (%) (Bevacizumab [1]; [5]) | Tocilizumab Bound (%) (Tocilizumab; [6]) | Tocilizumab Yield (%) (Tocilizumab; mass eluted / mass injected) | Palivizumab Bound (%) (Palivizumab; [6]) | Palivizumab Yield (%) (Palivizumab; mass eluted / mass injected) | h-poly-IgG Bound (%) [3, 6] | h-poly-IgG Yield (%) ([3]; mass eluted / mass injected) | HCP Bound (%) (host cell proteins (HCP); [7]) | Bevacizumab IgG Bound (%) (Bevacizumab [1]; [8]) | Bevacizumab IgG Yield (%) (Bevacizumab [1]; [9]) | Selectivity (Bevacizumab [2]) | Tocilizumab Bound (%) (Tocilizumab) | Tocilizumab Yield (%) (Tocilizumab) | Palivizumab Bound (%) (Palivizumab) | Palivizumab Yield (%) (Palivizumab) | h-poly-IgG Bound (%) [3] | h-poly-IgG Yield (%) [3] | HCP Bound (%) (host cell proteins (HCP); host cell proteins) | further results
COc1ccc(NC(=O)c2cn3ccsc3n2)cc1C(=O)NCCOCCOCC(=O)NCCCN [Ligand L77, 8-[5-(Imidazo-[2,1-b]thiazol-6-ylcarboxamido)-2-methoxyphenylcarboxamido]-3,6-dioxaoctanoic acid (3-amino-1-propyl)amide] | 100% | 96% | 80% | 80% | 55% | 55% | 65% | 65% | 10% | – | – | – | – | – | – | – | – | – | – | Selectivity (Bevacizumab [2]; bound Bevacizumab whole IgG / bound HCP, truncated beyond values of 10): 10.0
COc1ccc(NC(=O)c2cc(-c3csc(C)n3)on2)cc1C(=O)NCCCN [Ligand L42, 2-Methoxy-5-[5-(2-methylthiazol-4-yl)isoxazol-3-ylcarboxamido]benzoic acid (3-amino-1-propyl)amide] | – | – | – | – | – | – | – | – | – | 100% | 92% | 3.1 | 100% | 99% | 99% | 99% | 100% | 100% | 32% | –
COc1ccc(NC(=O)c2cn3ccsc3n2)cc1C(=O)NCCOCCOCC(=O)NCCCCCCN [Ligand L78, 8-[5-(Imidazo-[2,1-b]thiazol-6-ylcarboxamido)-2-methoxyphenylcarboxamido]-3,6-dioxaoctanoic acid (6-amino-1-hexyl)amide] | 100% | 94% | 94% | 94% | 61% | 61% | 76% | 76% | 14% | – | – | 7.4 | – | – | – | – | – | – | – | –
COc1ccc(NC(=O)c2cc(-c3ccco3)n(C)n2)cc1C(=O)NCCOCCOCC(=O)NCCOCCOCC(=O)NCCCN [Ligand L65, 8-{8-{5-[5-(2-Furyl)-1-methylpyrazol-3-ylcarboxamido]-2-methoxyphenylcarboxamido}-3,6-dioxaoctanoylamido}-3,6-dioxaoctanoic acid (3-amino-1-propyl)amide] | 100% | 100% | 74% | 71% | 58% | 58% | 67% | 67% | 11% | – | – | 9.5 | – | – | – | – | – | – | – | –
COc1ccc(NC(=O)c2c[nH]c3ccccc23)cc1C(=O)NCCCN [Ligand L26, 5-(Indol-3-yl)carboxamido-2-methoxybenzoic acid N-(3-aminopropyl)amide] | – | – | – | – | – | – | – | – | – | 100% | 94% | 2.4 | 77% | 84% | 58% | 59% | 75% | 74% | 42% | –
COc1ccc(NC(=O)c2nc3ccccc3[nH]2)cc1C(=O)NCCCN [Ligand L47, 5-(1H-Benzimidazol-2-ylcarboxamido)-2-methoxybenzoic acid (3-amino-1-propyl)amide] | – | – | – | – | – | – | – | – | – | 100% | 97% | 2.9 | 100% | 100% | 85% | 85% | 71% | 65% | 35% | –
NCCCNC(=O)c1cccc(C(=O)Nc2nc3ccccc3s2)c1 [Ligand L72, Isophthalic acid N-(3-aminopropyl)-N′-(benzothiazol-2-yl)amide] | 100% | 83% | 93% | 93% | 91% | 91% | 90% | 90% | 40% | – | – | 2.5 | – | – | – | – | – | – | – | –
NCCCNC(=O)c1cccc(C(=O)Nc2ncc(-c3ccccc3)s2)c1 [Ligand L74, Isophthalic acid N-(3-aminopropyl)-N′-(5-phenylthiazol-2-yl)amide] | 100% | 96% | 97% | 91% | 88% | 86% | 91% | 90% | 53% | – | – | 1.9 | – | – | – | – | – | – | – | –
COc1ccc(NC(=O)c2cc(-c3cccn3C)n(C)n2)cc1C(=O)NCCCN [Ligand L16, 2-Methoxy-5-[5-(1-methyl-2-pyrrolyl)-1-methylpyrazol-3-yl]carboxamidobenzoic acid N-(3-aminopropyl)amide] | – | – | – | – | – | – | – | – | – | 100% | 93% | 2.0 | 100% | 96% | 100% | 90% | 96% | 83% | 51% | –
Cn1nc(C(=O)Nc2ccc(C(=O)NCCCN)cc2)cc1-c1ccco1 [Ligand L18, 4-[5-(2-Furyl)-1-methylpyrazol-3-yl]carboxamidobenzoic acid N-(3-aminopropyl)amide] | – | – | – | – | – | – | – | – | – | 100% | 95% | 2.2 | 76% | 76% | 54% | 43% | 68% | 71% | 46% | –
COc1ccc(NC(=O)c2cc(-c3cc(C)sc3C)n(C)n2)cc1C(=O)NCCCN [Ligand L3, 5-[5-(2,5-Dimethyl-3-thienyl)-1-methylpyrazol-3-yl]carboxamido-2-methoxybenzoic acid N-(3-aminopropyl)amide] | – | – | – | – | – | – | – | – | – | 100% | 89% | 1.4 | 97% | 95% | 100% | 93% | 102% | 72% | 62% | –
COc1ccc(NC(=O)c2cn3cccnc3n2)cc1C(=O)NCCCN [Ligand L63, 5-(Imidazo[1,2-a]pyrimidin-2-ylcarboxamido)-2-methoxybenzoic acid (3-amino-1-propyl)amide] | – | – | – | – | – | – | – | – | – | 100% | 95% | – | 4% | 4% | 0% | 0% | 11% | 10% | 3% | Selectivity (Bevacizumab [2]; fraction of bound Bevacizumab whole IgG / fraction of bound HCP, truncated beyond values of 10): 10.0
CCOc1ccc(NC(=O)c2cc(-c3ccco3)n(C)n2)cc1C(=O)NCCCN [Ligand L29, 5-[5-(2-Furyl)-1-methylpyrazol-3-yl]carboxamido-2-ethoxybenzoic acid N-(3-aminopropyl)amide] | – | – | – | – | – | – | – | – | – | 100% | 84% | 2.4 | 100% | 96% | 100% | 88% | 95% | 70% | 43% | –
